In patent US9290544B2, “Methods for making and using molecular switches involving circular permutation” (priority 2004, dated 2016):
Several values for one entry are separate records, joined by “and”; a condition that tells them apart may be missing. Equal values may be shown once.

Experiments:
[1] = Nitrocefin hydrolysis in soluble fraction of cell lysates with and without 5 mM maltose (screen and confirmation of positives); format: biochemical; details: 50 μM nitrocefin
Experimental: Next, 50 μl of PopCulture (Novagen) and 2.5 unit of benzonase nuclease was added to each well and incubated for 15 minutes at room temperature to lyse the cells. The cells debris and any unlysed cells were pelleted by centrifugation and supernatant was recovered. In 96-well format, 60 μl of lysate was assayed for hydrolysis of nitrocefin (50 μM) by monitoring the increase in absorbance at 490 nm in 100 mM sodium phosphate buffer, pH 7.0, both with and without 5 mM maltose. Any lysate in which there was a difference in rate of more than 2-fold (between with and without maltose) was selected for retesting and further investigation.
Library members identified as having more than 200% switching activity in the 96-well plate screen were grown 24-48 hours in 100 ml LB media in 500 ml shaker flasks at 22° C. without IPTG. The cells were pelleted and resuspended in 8 ml assay buffer (100 mM sodium phosphate buffer, pH 7.0) and lysed by French press. The soluble fraction of this lysate was assayed for hydrolysis of nitrocefin (50 μM) at 22° C. as previously described (Guntas and Ostermeier 2004) both with and without 5 mM maltose. Initial rates were determined from absorbance at 486 nm monitored as a function of time. The enzyme was incubated at the assay temperature in the absence or presence of 5 mM maltose for four minutes prior to performing the assay. All assays contained 100 mM sodium phosphate buffer, pH 7.0. Library members for which there was a difference in the initial rate of more than about 2-fold were sequenced (Table 4). Switches RG-5-169 and RG-200-13 were also assayed in the presence of 5 mM sucrose or 5 mM glucose.

[2] = Spectrophotometric nitrocefin hydrolysis assay of purified RG-200-13, 22° C.; format: biochemical; details: for Change in velocity of nitrocefin hydrolysis in presence of sugar: 50 μM nitrocefin; for Change in velocity of nitrocefin hydrolysis in presence of sugar / Km / kcat: pH 7.0, 22° C.
Experimental: (§1) A 6×His tag was added to the C-terminus of RG-200-13 (also termed “RG13” in Examples below) and the fusion was purified as previously described (Guntas and Ostermeier 2004). The protein was purified to approximately 60% purity. The kinetic constants and binding constants were determined from Eadie-Hofstee plots and Eadie plot equivalents, respectively, using a spectrophotometric assay for nitrocefin hydrolysis. Initial rates for nitrocefin hydrolysis were determined from absorbance at 486 nm monitored as a function of time. The enzyme was incubated at the assay temperature in the absence or presence of saccharide for four minutes prior to performing the assay. All assays contained 100 mM sodium phosphate buffer, pH 7.0. The dissociation constant for maltose was determined using change in velocity of nitrocefin hydrolysis as a signal.

[3] = Hydrolysis of benzylpenicillin by RG-200-13 with and without 5 mM maltose; format: biochemical; details: pH 7.0, 22° C.
Experimental: as §1
(§2) Maltose binding had the largest effect on cephalothin (of the substrates tested), with the velocity of cephalothin hydrolysis being 32-fold higher in the presence of maltose than in its absence.

[4] = Hydrolysis of carbenicillin by RG-200-13 with and without 5 mM maltose; format: biochemical; details: substrate carbenicillin 1 mM; pH 7.0, 22° C.
Experimental: as §1, §2

[5] = Steady state kinetics of nitrocefin hydrolysis, purified RG13 proteins, 25° C.; format: biochemical
Experimental: (§3) All kinetic assays were performed at 25° C. in the presence of 100 mM sodium phosphate buffer, pH 7.0. Ten μl of enzyme stock was added to 1.59 ml buffer (containing the saccharide, if desired). After incubation for 30 seconds, 0.4 ml of 5× substrate was added and the absorbance at the appropriate wavelength was recorded using the Cary50 UV-VIS spectrophotometer. The wavelength monitored was 486 nm, 240 nm, and 232 nm for nitrocefin, carbenicillin, and ampicillin respectively. From the initial rate of reaction the kinetic constants were determined using Eadie-Hofstee plots. […] The rate data was consistent with a small hysteretic effect (Brennan et al. 1994) and not substrate inhibition as preincubation of the enzyme with the substrate for one minute prevented the lag from occurring upon addition of more substrate. Therefore, the steady state parameters for nitrocefin hydrolysis in the absence of maltose were determined by measuring the rate at 1-2 minutes (well after the lag) and correcting the substrate concentration by subtracting the amount of substrate hydrolyzed. In all cases the extent of reaction at the point the rate was measured was less than 25%. In the presence of maltose, no lag was observed.

[6] = Ampicillin hydrolysis by purified RG13, 25° C.; format: biochemical; details: 50 μM ampicillin
Experimental: as §3

[7] = Maltose affinity by intrinsic protein fluorescence; format: binding
Experimental: Maltose affinity for RG13 (in presence and absence of 10 mM carbenicillin) and RG13(1329W) (in the absence of substrate) was determined using intrinsic protein fluorescence measured on a Photon Technology QuantaMaster QM-4 spectrofluorometer. Fluorescence spectra were obtained at 25° C. at different concentrations of maltose in 50 mM sodium phosphate buffer, pH 7.0, containing 100 mM sodium chloride. The protein concentration was 50-100 nM. Excitation was at 280 nm. The quenching in fluorescence intensity at 341 nm caused by maltose was used in Eadie-Hofstee equivalent plots to determine Kd using the following equation:
[formula] where ΔF is the change in fluorescence intensity, ΔFmax is the difference in fluorescence between no maltose and saturating amounts of maltose and [L] is the maltose concentration. The fluorescence quenching of RG13(1329W/A96W) upon addition of maltose was insufficient to accurately determine a Kd by this method. The dissociation constant for maltose and RG13(I329W) in the presence of saturating carbenicillin (2 mM) was determined by measuring the initial rate of carbenicillin hydrolysis as a function of maltose concentration. The apparent dissociation constant in the presence of subsaturating concentrations of nitrocefin (25 μM) for all three proteins was determined by measuring the initial rate of nitrocefin hydrolysis as a function of maltose concentration.

[8] = Affinity of switches for maltose (method not given); format: binding
From the text: Exemplary switches were created by the method having different affinities for maltose.

[9] = effector maltose 5 mM (saturating)
[10] = effector maltose 5 mM (saturating), nitrocefin, 25° C.
[11] = effector β-cyclodextrin 5 mM, nitrocefin, 25° C.
[12] = no effector, nitrocefin, pH 7.0, 25° C.

RG13: MBP-BLA fusion switch MBP[1-316]-BLA[227-286]-GSGGG-BLA[24-226]-S-MBP[319-370]; SEQ ID NO: 61
Effect of 5 mM sucrose or 5 mM glucose on velocity of nitrocefin hydrolysis ([1]; 22° C., lysate soluble fraction): Neither sugar affected the velocity of nitrocefin hydrolysis
Switching effect: percent change in velocity of nitrocefin hydrolysis in the presence of 5 mM maltose ([1]; 5 mM maltose, 100 mM sodium phosphate buffer, pH 7.0): +1650%
Change in velocity of nitrocefin hydrolysis in presence of sugar ([2]; Galactose 5 mM): −3%
Change in velocity of nitrocefin hydrolysis in presence of sugar ([2]; Lactose 5 mM): −4%
Change in velocity of nitrocefin hydrolysis in presence of sugar ([2]; Maltose 5 mM): +1800%
Change in velocity of nitrocefin hydrolysis in presence of sugar ([2]; Maltotetraitol 5 mM): +400%
Change in velocity of nitrocefin hydrolysis in presence of sugar ([2]; Maltotriose 5 mM): +1700%
Change in velocity of nitrocefin hydrolysis in presence of sugar ([2]; Sucrose 5 mM): −5%
Km ([2]; nitrocefin, 5 mM maltose): ~85 µM
kcat ([2]; nitrocefin, 5 mM maltose, listed as RG-200-13): ~520 s⁻¹
Km Ratio (with maltose)/(without maltose) ([2]; nitrocefin, 22° C.): ~0.26
kcat Ratio (with maltose)/(without maltose) ([2]; nitrocefin, 22° C.): ~6.5
Km ([2]; nitrocefin, no maltose): ~325 µM
kcat ([2]; nitrocefin, no maltose): ~80 s⁻¹
Change in velocity of nitrocefin hydrolysis in presence of sugar ([2]; β-cyclodextrin 3 mM): +150%
Approximate fold increase in velocity of benzylpenicillin hydrolysis in the presence of 5 mM maltose ([3]; substrate benzylpenicillin 100 μM): ~17 fold
Approximate fold increase in velocity of benzylpenicillin hydrolysis in the presence of 5 mM maltose ([3]; substrate benzylpenicillin 500 μM): ~7 fold
Approximate fold increase in velocity of carbenicillin hydrolysis in the presence of 5 mM maltose [4]: ~4 fold
Increase in the reaction rate on addition of subsaturating maltose ([5]; 20 μM nitrocefin, 2.5 nM RG13, 2 ml, 20 μl of 1 M maltose added (FIG. 7B)): 10 fold
Km Ratio (with effector)/(without effector) ([5]; effector maltose 5 mM): 0.12 ± 0.03
kcat Ratio (with effector)/(without effector) [5, 9]: 3 and 3.1 ± 0.6
kcat/Km Ratio (with effector)/(without effector) [5, 9]: 25 and 25 ± 7
Km [5, 10]: 68 ± 4 µM
kcat [5, 10]: 620 ± 60 s⁻¹ and 620 ± 30 s⁻¹
Km Ratio (with effector)/(without effector) ([5]; effector β-cyclodextrin 5 mM): 1.6 ± 0.4
kcat Ratio (with effector)/(without effector) ([5]; effector β-cyclodextrin 5 mM): 2.9 ± 0.6
kcat/Km Ratio (with effector)/(without effector) ([5]; effector β-cyclodextrin 5 mM): 1.8 ± 0.6
Km [5, 11]: 870 ± 90 µM
kcat [5, 11]: 590 ± 60 s⁻¹
Decrease of Km with saturating amounts of maltose ([5]; nitrocefin, 25° C.): 8 fold
Km [5, 12]: 550 ± 120 µM
kcat [5, 12]: 200 ± 40 s⁻¹
Effect of non-ligands on rate of nitrocefin hydrolysis ([5]; sucrose, lactose and galactose 5 mM, 20 μM nitrocefin (FIG. 7A)): no effect
Increase in the rate of nitrocefin hydrolysis upon addition of ligand ([5]; β-cyclodextrin 5 mM, 20 μM nitrocefin (FIG. 7A)): 2 fold
Rate increase with maltose [6]: 16 fold
Kd ([7]; 10 mM carbenicillin, 25° C., read-out: Kd maltose, Saturating Carbenicillin, IPF): 1.3 ± 0.5 µM
Kd ([7]; intrinsic protein fluorescence, 100 mM NaCl, 50 mM NaPO4, pH 7.0, 25° C., read-out: Kd maltose, No Substrate): 5.5 µM and 5 to 6 µM
Kd ([7]; text of Example 3, read-out: Dissociation constant for maltose in the presence of saturating amounts of carbenicillin): ~1 µM
Kd [8]: 1000 to 5000 nM
